Test results as given in paper PMC8385015, “Tumour-on-chip microfluidic platform for assessment of drug pharmacokinetics and treatment response” (Communications Biology, 2021).
Values joined by “and” are separate entries in the source; they are usually repeats but may differ in a detail not shown here. Equal entries are not always repeated. Where two headings read alike, the source gives them in different places.

Experiments:
[1] = in vivo; settings: mouse
Protocol: The samples were collected at 5, 15, 40 min, and 1, 2, 4, 6, 8 and 24 h.
Whole blood was mixed 1:5 with PBS and centrifuged at 1500×g for 3 min at 4 °C, and the plasma was extracted and frozen at –80 °C.
Using this PK model, a time course of free plasma concentrations of both drugs was simulated (Table 1).
Acidified acetonitrile ([…]) was added with the internal standard, followed by centrifugation at 3000 rpm for 10 min. Supernatant ([…]) was then removed to a clean plate and dried under nitrogen. […]
Supplementary Method 8. Pharmacokinetic models parameters used for simulations
AZD156 PK model and PK parameters used for simulations

[2] = system: SW620 xenograft; format: in vivo; settings: irinotecan 50 mg/kg IP day 1 weekly + vehicle PO, single animals
Protocol: We tested different weekly in vivo dosing schedules, previously evaluated in SW620 spheroids on the chip (Fig. 5a) using matched exposure profiles to those previously observed in mouse plasma.
Male immunocompromised Hsd:Athymic Nude-Foxn1nu mice (Envigo) were used for xenograft tumour implantation. […] Animals were randomised into groups of 9–15 when tumours reached a volume of ~0.30 cm[3] and 4 weekly cycles of treatment commenced.
Tumours were measured twice weekly (length × width) by bilateral Vernier calliper measurements and tumour volume calculated using Mousetrap software. Tumour growth inhibition from start of treatment was assessed by comparison of the mean change in tumour volume for the control and treated groups using the Mousetrap application and represented as TGI.

[3] = population PK model parameter, mean

For `CCc1c2c(nc3ccc(OC(=O)N4CCC(N5CCCCC5)CC4)cc13)-c1cc3c(c(=O)n1C2)COC(=O)[C@]3(O)CC` [Irinotecan], the Km ([1]; female, CB-17 SCID, in vivo) was 6.12 nM, the “Q/(1-F4)” value ([1]; female, CB-17 SCID, in vivo) was 0.0574 L/h and the “FM*” value [1, 3] was 0.286. For the same molecule, the “V2/(1-F4)” value [1, 3] was 0.0161 L, the “V3/(1-F4)” value [1, 3] was 5.26 L and the Vmax [1, 3] was 0.0589 µM/h. The ka [1, 3] was 0.454 h⁻¹, the Tumour size ([2]; day 7 (fig 5b 01)) was 0.6466 cm^3 and 0.9799 cm^3 and 0.6666 cm^3 and 1.05 cm^3 and 0.9864 cm^3 and 1.225 cm^3 and 0.8608 cm^3 and 0.8801 cm^3 and 0.7589 cm^3 and 0.364 cm^3 and 1.22 cm^3 and 1.71 cm^3 and 0.9487 cm^3 and 0.9159 cm^3 and 0.8306 cm^3 and the Tumour size ([2]; day 15 (fig 5b 02)) was 1.28 cm^3 and 1.619 cm^3 and 0.8212 cm^3 and 0.6967 cm^3 and 1.922 cm^3 and 1.901 cm^3 and 1.374 cm^3 and 0.7853 cm^3 and 2.931 cm^3. For the same molecule, the Tumour size ([2]; day 35 (fig 5b 03)) was 3.4844 cm^3 and 2.894 cm^3 and 2.205 cm^3 and 2.6873 cm^3 and 2.88 cm^3 and 1.604 cm^3 and 1.682 cm^3.
